Measured values published in ChEMBL document CHEMBL1201862, “PubChem BioAssay data set” (2004).
Calls of active or inactive are those of the source. Unless noted, no cut-off for these calls is given here.

What was measured:
[1] = target: Sphingosine 1-phosphate receptor 2 (Homo sapiens, UniProt O95136); assay: Dose Response Cell Based Assay for Agonists of the S1P2 Receptor. [Related pubchem assays: 729, 736, 843 ]; assay type: functional
[2] = target: Eukaryotic translation initiation factor 4E (Mus musculus, UniProt P63073); assay: blockers of eIF4G binding by eIF4E – biochemical, TR-FRET, dose response (AID 855); assay type: functional;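 note: potency for disrupting eIF4E binding to eIF4GI seen as loss of FRET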
Sequence of Eukaryotic translation initiation factor 4E (P63073 whole entry): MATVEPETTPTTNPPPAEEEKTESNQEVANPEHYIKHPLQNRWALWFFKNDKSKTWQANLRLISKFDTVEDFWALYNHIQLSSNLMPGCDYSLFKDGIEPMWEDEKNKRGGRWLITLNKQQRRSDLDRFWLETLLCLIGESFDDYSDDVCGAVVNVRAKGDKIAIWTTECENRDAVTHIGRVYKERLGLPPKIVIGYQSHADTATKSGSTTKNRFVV

Bcl-2-like protein 10 = target: T1, Bcl-2-like protein 10 (Homo sapiens, UniProt Q9HD36); assay: Bcl-B/TR3 peptide binding disruption – biochemical, fluorescence polarization, FITC-TR3 peptide, selectivity assay for Bfl-1 inhibitor project, primary screen (AID 748);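 note: fluorescence polarization from a fluorescein-labelled TR3 peptide binding purified Bcl-B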
T1 sequence (Q9HD36 whole entry): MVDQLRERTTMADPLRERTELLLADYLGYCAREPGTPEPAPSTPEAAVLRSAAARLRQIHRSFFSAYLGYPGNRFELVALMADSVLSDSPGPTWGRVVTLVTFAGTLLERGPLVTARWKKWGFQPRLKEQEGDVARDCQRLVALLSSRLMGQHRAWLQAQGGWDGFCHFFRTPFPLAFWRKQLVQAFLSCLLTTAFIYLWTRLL

Protein Tat = Protein Tat (Human immunodeficiency virus type 1 group M subtype B (isolate HXB2)(HIV-1), UniProt P04608); assay type: functional;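 note: tat binding to TAR RNA read out by fluorescence polarization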
Sequence of Protein Tat (P04608 whole entry): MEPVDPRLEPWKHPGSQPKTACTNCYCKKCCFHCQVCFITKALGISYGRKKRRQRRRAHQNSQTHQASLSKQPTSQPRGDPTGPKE

[3] = Single fluorophore orthopox expression reporter, late gene expression Measured in Cell-Based and Microorganism Combination System Using Plate Reader - 2142-08_Inhibitor_Dose_DryPowder_Activity.; assay type: functional
[4] = lung carcinoma cell viability loss – CellTiter-Glo luminescence, dry powder, set 17, dose response (AID 1117284); assay type: functional, cell-based; settings: A549
[5] = inhibitors of orthopox intermediate gene expression, dose response, cell-based, single fluorophore reporter, dry powder (AID 1117271); assay type: functional

Sequence of Sphingosine 1-phosphate receptor 2 (O95136 whole entry): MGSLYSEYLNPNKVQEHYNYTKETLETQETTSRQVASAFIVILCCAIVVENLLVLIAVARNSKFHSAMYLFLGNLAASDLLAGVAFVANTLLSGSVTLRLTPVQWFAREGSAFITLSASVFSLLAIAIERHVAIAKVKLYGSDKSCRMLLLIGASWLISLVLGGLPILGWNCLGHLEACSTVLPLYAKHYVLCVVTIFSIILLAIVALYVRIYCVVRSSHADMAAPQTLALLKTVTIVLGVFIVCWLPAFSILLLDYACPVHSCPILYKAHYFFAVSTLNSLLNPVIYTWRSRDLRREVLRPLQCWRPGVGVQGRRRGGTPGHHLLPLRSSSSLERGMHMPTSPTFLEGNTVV

CCOc1cccc(OCCCCn2ccnc2)c1
EC50 [1]: > 50 µM (not active) | IC50 [2]: > 64 µM (inactive)

O=C1c2ccccc2CC1Sc1nnc(-c2ccccn2)o1 (configuration not stated)
IC50 (Bcl-2-like protein 10): > 100 µM (inactive) | IC50 (Protein Tat): > 100 µM (active)

C[C@@H](O)C#Cc1ccc2c(c1)O[C@@H](CN(C)Cc1ccc(-c3cccc(Cl)c3)cc1)[C@@H](C)CN([C@@H](C)CO)S2(=O)=O
AC50 [3]: 2.54 µM (active) | AC50 [4]: 51.5 µM (active) | AC50 [5]: 3.58 µM (active)
